Usually IC50 stands for the point on the concentration scale where inhibition reaches its midpoint.

For the first assay, the target named is T1, PLK1 (Homo sapiens, UniProt P53350).
T1 construct: endogenous in cells; host or cells: HeLa LgBit (Plk1-HiBit KI): HeLa stably expressing LgBit, with a CRISPR/Cas9 knock-in of HiBit at the endogenous PLK1 locus
T1 sequence (P53350 whole entry): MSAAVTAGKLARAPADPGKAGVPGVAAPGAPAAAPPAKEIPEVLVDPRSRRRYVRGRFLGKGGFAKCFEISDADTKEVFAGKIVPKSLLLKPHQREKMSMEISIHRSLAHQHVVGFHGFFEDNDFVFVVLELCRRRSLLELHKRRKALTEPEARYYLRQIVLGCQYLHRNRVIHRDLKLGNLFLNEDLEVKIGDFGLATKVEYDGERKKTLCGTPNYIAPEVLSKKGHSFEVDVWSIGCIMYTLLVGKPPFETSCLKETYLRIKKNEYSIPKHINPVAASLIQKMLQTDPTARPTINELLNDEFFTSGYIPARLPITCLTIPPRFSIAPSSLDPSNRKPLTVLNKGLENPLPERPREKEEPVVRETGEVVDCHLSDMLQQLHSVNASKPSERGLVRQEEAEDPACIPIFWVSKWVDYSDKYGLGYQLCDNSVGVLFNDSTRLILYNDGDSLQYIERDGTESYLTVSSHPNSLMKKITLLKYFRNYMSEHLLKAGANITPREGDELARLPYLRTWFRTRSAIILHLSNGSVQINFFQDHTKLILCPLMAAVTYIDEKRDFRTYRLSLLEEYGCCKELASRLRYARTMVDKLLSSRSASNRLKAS
The experiment in a line: Luciferase assay for PLK1 in HeLa LgBit (Plk1-HiBit KI) cell line. In kind it is cell-based. The following applies: 300 nM compound, luminescence after 9 hours. The method in brief: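 HeLa cells stably expressing LgBit, with HiBit knocked in at the C-terminus of endogenous Plk1, released from a 24 h 2 mM thymidine block and grown 18 h. Endurazine added, then compound at 300 nM; luminescence tracked in real time, expressed as ratio to DMSO.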
Background: The HiBiT peptide binds its large partner to form an active luciferase.
Regarding `COc1cc(C(=O)NN2CCN(C3CCN(c4cccc5c4C(=O)N(C4CCC(=O)NC4=O)C5=O)C3)CC2)ccc1Nc1ncc2c(n1)N(C(C)C)CC(F)(F)C(=O)N2C` (stereo not shown) [Compound 52, 4-((7,7-difluoro-9-isopropyl-5-methyl-6-oxo-6,7,8,9-tetrahydro-5H-pyrimido[4,5-b][1,4]diazepin-2-yl)amino)-N-(4-(1-(2-(2,6-dioxopiperidin-3-yl)-1,3-dioxoisoindolin-4-yl)pyrrolidin-3-yl)piperazin-1-yl)-3-methoxybenzamide], the “Activity: ratio of the luminescense value of each Exemplary Compound treatment group to DMSO treatment group” value (“Activity: ratio” for short) is listed as “++ (++<0.6)”.

For `COc1cc(C(=O)NC2CCN(CCOc3cccc4c3C(=O)N(C3CCC(=O)NC3=O)C4=O)CC2)c(Cl)cc1Nc1ncc2c(n1)N(C1CCCC1)CC(F)(F)C(=O)N2C` (stereo not shown) [Compound 6, 2-chloro-4-((9-cyclopentyl-7,7-difluoro-5-methyl-6-oxo-6,7,8,9-tetrahydro-5H-pyrimido[4,5-b][1,4]diazepin-2-yl)amino)-N-(1-(2-((2-(2,6-dioxopiperidin-3-yl)-1,3-dioxoisoindolin-4-yl)oxy)ethyl)piperidin-4-yl)-5-methoxybenzamide], the “Activity: ratio” value is reported as “+++ (+++: <0.3)”. For `COc1cc(C(=O)NC2CCC(N3CCN(CCOCCNc4ccc5c(c4)C(=O)N(C4CCC(=O)NC4=O)C5=O)CC3)CC2)c(F)cc1Nc1ncc2c(n1)N(C1CCCC1)CC(F)(F)C(=O)N2C` (stereo not shown) [Compound 193, 4-((9-cyclopentyl-7,7-difluoro-5-methyl-6-oxo-6,7,8,9-tetrahydro-5H-pyrimido[4,5-b][1,4]diazepin-2-yl)amino)-N-((1r,4r)-4-(4-(2-(2-((2-(2,6-dioxopiperidin-3-yl)-1,3-dioxoisoindolin-5-yl)amino)ethoxy)ethyl)piperazin-1-yl)cyclohexyl)-2-fluoro-5-methoxybenzamide], the “Activity: ratio” value is on record as “++ (++<0.6)”.

In the case of `COc1cc(C(=O)NC2CCN(CCCC3CCCN(c4cccc5c4C(=O)N(C4CCC(=O)NC4=O)C5=O)C3)CC2)ccc1Nc1ncc2c(n1)N(C1CCCC1)CC(F)(F)C(=O)N2C` (stereo not shown) [Compound 57, 4-((9-cyclopentyl-7,7-difluoro-5-methyl-6-oxo-6,7,8,9-tetrahydro-5H-pyrimido[4,5-b][1,4]diazepin-2-yl)amino)-N-(1-(3-(1-(2-(2,6-dioxopiperidin-3-yl)-1,3-dioxoisoindolin-4-yl)piperidin-3-yl)propyl)piperidin-4-yl)-3-methoxybenzamide], the “Activity: ratio” value is given as “+ (+<0.7)”. `COc1cc(C(=O)NC2CCN(C(=O)CCCN3CCN(c4cccc5c4C(=O)N(C4CCC(=O)NC4=O)C5=O)CC3)CC2)ccc1Nc1ncc2c(n1)N(C1CCCC1)CC(F)(F)C(=O)N2C` (stereo not shown) [Compound 64, 4-((9-cyclopentyl-7,7-difluoro-5-methyl-6-oxo-6,7,8,9-tetrahydro-5H-pyrimido[4,5-b][1,4]diazepin-2-yl)amino)-N-(1-(4-(4-(2-(2,6-dioxopiperidin-3-yl)-1,3-dioxoisoindolin-4-yl)piperazin-1-yl)butanoyl)piperidin-4-yl)-3-methoxybenzamide]: the “Activity: ratio” value is “++ (++<0.6)”. Take `COc1cc(C(=O)N2CCC(N3CCN(CCOCCNc4cccc5c4C(=O)N(C4CCC(=O)NC4=O)C5=O)CC3)CC2)c(F)cc1Nc1ncc2c(n1)N(C1CCCC1)CC(F)(F)C(=O)N2C` (stereo not shown) [Compound 189, 4-((2-(2-(4-(1-(4-((9-cyclopentyl-7,7-difluoro-5-methyl-6-oxo-6,7,8,9-tetrahydro-5H-pyrimido[4,5-b][1,4]diazepin-2-yl)amino)-2-fluoro-5-methoxybenzoyl)piperidin-4-yl)piperazin-1-yl)ethoxy)ethyl)amino)-2-(2,6-dioxopiperidin-3-yl)isoindoline-1,3-dione]: the “Activity: ratio” value was “++ (++<0.6)”. In the case of `COc1cc(C(=O)NCCOCCOCCOCCOCCNc2cccc3c2C(=O)N(C2CCC(=O)NC2=O)C3=O)c(N2CCN(C)CC2)cc1Nc1ncc2c(n1)N(C1CCCC1)CC(F)(F)C(=O)N2C` (stereo not shown) [Compound 224, 4-((9-cyclopentyl-7,7-difluoro-5-methyl-6-oxo-6,7,8,9-tetrahydro-5H-pyrimido[4,5-b][1,4]diazepin-2-yl)amino)-N-(14-((2-(2,6-dioxopiperidin-3-yl)-1,3-dioxoisoindolin-4-yl)amino)-3,6,9,12-tetraoxatetradecyl)-5-methoxy-2-(4-methylpiperazin-1-yl)benzamide], the “Activity: ratio” value is listed as “++ (++<0.6)”. The same measure, in the same setting: for `COc1cc(C(=O)N2CCN(CCCNc3ccc4c(c3)C(=O)N(C3CCC(=O)NC3=O)C4=O)CC2)c(F)cc1Nc1ncc2c(n1)N(C1CCCC1)CC(F)(F)C(=O)N2C` (stereo not shown) [Compound 186, 5-((3-(4-(4-((9-cyclopentyl-7,7-difluoro-5-methyl-6-oxo-6,7,8,9-tetrahydro-5H-pyrimido[4,5-b][1,4]diazepin-2-yl)amino)-2-fluoro-5-methoxybenzoyl)piperazin-1-yl)propyl)amino)-2-(2,6-dioxopiperidin-3-yl)isoindoline-1,3-dione] the value was “++ (++<0.6)”; for `COc1cc(C(=O)NCCOCCNc2cccc3c2C(=O)N(C2CCC(=O)NC2=O)C3=O)c(N2CCN(C)CC2)cc1Nc1ncc2c(n1)N(C1CCCC1)CC(F)(F)C(=O)N2C` (stereo not shown) [Compound 221, 4-((9-cyclopentyl-7,7-difluoro-5-methyl-6-oxo-6,7,8,9-tetrahydro-5H-pyrimido[4,5-b][1,4]diazepin-2-yl)amino)-N-(2-(2-((2-(2,6-dioxopiperidin-3-yl)-1,3-dioxoisoindolin-4-yl)amino)ethoxy)ethyl)-5-methoxy-2-(4-methylpiperazin-1-yl)benzamide], “+ (+<0.7)”; for `COc1cc(C(=O)NC2CCN(C(=O)CCC#Cc3cccc4c3C(=O)N(C3CCC(=O)NC3=O)C4=O)CC2)ccc1Nc1ncc2c(n1)N(C1CCCC1)CC(F)(F)C(=O)N2C` (stereo not shown) [Compound 179, 4-((9-cyclopentyl-7,7-difluoro-5-methyl-6-oxo-6,7,8,9-tetrahydro-5H-pyrimido[4,5-b][1,4]diazepin-2-yl)amino)-N-(1-(5-(2-(2,6-dioxopiperidin-3-yl)-1,3-dioxoisoindolin-4-yl)pent-4-ynoyl)piperidin-4-yl)-3-methoxybenzamide], “++ (++<0.6)”.

`COc1cc(C(=O)NN2CCN(C3CN(c4cccc5c4C(=O)N(C4CCC(=O)NC4=O)C5=O)C3)CC2)ccc1Nc1ncc2c(n1)N(C1CCCC1)CC(F)(F)C(=O)N2C` (stereo not shown) [Compound 200, 4-((9-cyclopentyl-7,7-difluoro-5-methyl-6-oxo-6,7,8,9-tetrahydro-5H-pyrimido[4,5-b][1,4]diazepin-2-yl)amino)-N-(4-(1-(2-(2,6-dioxopiperidin-3-yl)-1,3-dioxoisoindolin-4-yl)azetidin-3-yl)piperazin-1-yl)-3-methoxybenzamide]: the “Activity: ratio” value is “+ (+<0.7)”. On to `COc1cc(C(=O)N2CCC(CN3CCN(c4cc5c(cc4F)C(=O)N(C4CCC(=O)NC4=O)C5=O)CC3)CC2)ccc1Nc1ncc2c(n1)N(C1CCCC1)CC(F)(F)C(=O)N2C` (stereo not shown) [Compound 101, 5-(4-((1-(4-((9-cyclopentyl-7,7-difluoro-5-methyl-6-oxo-6,7,8,9-tetrahydro-5H-pyrimido[4,5-b][1,4]diazepin-2-yl)amino)-3-methoxybenzoyl)piperidin-4-yl)methyl)piperazin-1-yl)-2-(2,6-dioxopiperidin-3-yl)-6-fluoroisoindoline-1,3-dione], for which the “Activity: ratio” value is given as “++ (++<0.6)”. Consider `COc1cc(C(=O)N2CCN(CCCNc3cccc4c3C(=O)N(C3CCC(=O)NC3=O)C4=O)CC2)c(F)cc1Nc1ncc2c(n1)N(C1CCCC1)CC(F)(F)C(=O)N2C` (stereo not shown) [Compound 183, 4-((3-(4-(4-((9-cyclopentyl-7,7-difluoro-5-methyl-6-oxo-6,7,8,9-tetrahydro-5H-pyrimido[4,5-b][1,4]diazepin-2-yl)amino)-2-fluoro-5-methoxybenzoyl)piperazin-1-yl)propyl)amino)-2-(2,6-dioxopiperidin-3-yl)isoindoline-1,3-dione], for which the “Activity: ratio” value is “+ (+<0.7)”. On the same count and under the same terms, for `COc1cc(C(=O)N[C@H]2CCN(C(=O)CCN3CCN(c4ccc5c(c4)CN(C4CCC(=O)NC4=O)C5=O)CC3)C2)c(F)cc1Nc1ncc2c(n1)N(C1CCCC1)CC(F)(F)C(=O)N2C` (stereo partly drawn) [Compound 84, 4-((9-cyclopentyl-7,7-difluoro-5-methyl-6-oxo-6,7,8,9-tetrahydro-5H-pyrimido[4,5-b][1,4]diazepin-2-yl)amino)-N-((3S)-1-(3-(4-(2-(2,6-dioxopiperidin-3-yl)-1-oxoisoindolin-5-yl)piperazin-1-yl)propanoyl)pyrrolidin-3-yl)-2-fluoro-5-methoxybenzamide] the value was “++ (++<0.6)”.

A further assay deals with NCI-H526 cell line. The experiment in a line: Cell viability assay for H526 cell (EZ-Cytox). In kind it is cell-based. The following applies: Homo sapiens, NCI-H526, 120 h; H526 cells, 5 days, 3000 nM to 0.46 nM. Here is the method:
(1) Culture of NCI-H526 Cell Line
(2) Treatment of Compounds of the Present Invention and Method of Cell Viability Assay
After treating the compound to each well to make the total volume of 200 μL, it was cultured in a CO2 incubator (Thermo Fisher Science, Cat. No. 4111) for 5 days.
The absorbance of the completely cultured sample was measured by setting the wavelength of a plate reader (BMG Labtech, CLARIOstar Plus) to […], and was measured after shaking for 3 minutes in a plate reader before measurement.
In Table 3, Activity represents IC50 value of each Exemplary Compound treatment group to H526 cell line (A: <30 nM, B: <50 nM, C: <100 nM, D: <200 nM, E: <400 nM).
The molecule `COc1cc(C(=O)NN2CCN(C3CCN(c4cccc5c4C(=O)N(C4CCC(=O)NC4=O)C5=O)C3)CC2)ccc1Nc1ncc2c(n1)N(C(C)C)CC(F)(F)C(=O)N2C` (stereo not shown) [Compound 52, 4-((7,7-difluoro-9-isopropyl-5-methyl-6-oxo-6,7,8,9-tetrahydro-5H-pyrimido[4,5-b][1,4]diazepin-2-yl)amino)-N-(4-(1-(2-(2,6-dioxopiperidin-3-yl)-1,3-dioxoisoindolin-4-yl)pyrrolidin-3-yl)piperazin-1-yl)-3-methoxybenzamide] yielded an IC50 of less than 0.03 µM. Same read-out and setting: for `COc1cc(C(=O)NC2CCN(CCOc3cccc4c3C(=O)N(C3CCC(=O)NC3=O)C4=O)CC2)c(Cl)cc1Nc1ncc2c(n1)N(C1CCCC1)CC(F)(F)C(=O)N2C` (stereo not shown) [Compound 6, 2-chloro-4-((9-cyclopentyl-7,7-difluoro-5-methyl-6-oxo-6,7,8,9-tetrahydro-5H-pyrimido[4,5-b][1,4]diazepin-2-yl)amino)-N-(1-(2-((2-(2,6-dioxopiperidin-3-yl)-1,3-dioxoisoindolin-4-yl)oxy)ethyl)piperidin-4-yl)-5-methoxybenzamide] the value was less than 0.4 µM.

The values above are taken from patent US20250114460A1, “NOVEL PLK1 DEGRADATION INDUCING COMPOUND” (UPPTHERA, INC., priority 2021, published 2025).
